The source of these data is publication PMC8808171, “Nonselective TRPC channel inhibition and suppression of aminoglycoside-induced premature termination codon readthrough by the small molecule AC1903” (The Journal of Biological Chemistry, 2022).

The target in experiment [1] is T1, TRPC5–C1 (Homo sapiens, UniProt P48995+Q9UL62).
T1 construct: expressed in transfected cells; host or cells: HEK T-REx (tetracycline-induced)
The experiment is described as follows: [Ca2+]i recordings (Fura-2), concatemeric TRPC5–C1 in HEK T-REx cells. Type of experiment: cell-based. The settings on record: activator EA (30 nM). As to the method:
(§1) Based on the findings described above, we wondered whether AC1903—which is typically used as a TRPC5 inhibitor at concentrations of 30–100 μM in cellular assays ([29], [56])—might have limited selectivity for TRPC5 channels and whether its effect on intracellular G418 levels and PTC readthrough might be the consequence of inhibition of other or multiple targets. All well-characterized TRPC channel inhibitors reported to date modulate multiple TRP(C) channels ([34], [35], [36]). […] Because limited data for the selectivity of AC1903 are available in the public domain, we decided to profile AC1903 against a selection of calcium-permeable cation channels by intracellular calcium ([Ca^2+]i) recordings using well-characterized cell lines and TRP channel activators ([46], [57], [58]), and the Ca^2+ indicator Fura-2. In these assays, cells (HEK 293, HEK T-REx, or CHO) overexpressing the relevant ion channel protein and loaded with Fura-2 AM (a cell-permeable precursor of Fura-2) were preincubated with various concentrations of AC1903 or vehicle (DMSO) for 30 min. Then, changes in ratiometric fluorescence (from background) were recorded upon addition of the respective ion channel activator.
HEK T-REx cells expressing tetracycline-inducible TRPC4, TRPC5, TRPC5–C1,TRPC4–C1, and hPiezo1 have been described previously ([46], [57], [59], [78]). […]

The target in experiment [2] is T2, TRPV1:V1 (Rattus norvegicus, UniProt O35433).
T2 construct: expressed in transfected cells; host or cells: WT HEK 293 (transient)
T2 sequence (O35433 whole entry): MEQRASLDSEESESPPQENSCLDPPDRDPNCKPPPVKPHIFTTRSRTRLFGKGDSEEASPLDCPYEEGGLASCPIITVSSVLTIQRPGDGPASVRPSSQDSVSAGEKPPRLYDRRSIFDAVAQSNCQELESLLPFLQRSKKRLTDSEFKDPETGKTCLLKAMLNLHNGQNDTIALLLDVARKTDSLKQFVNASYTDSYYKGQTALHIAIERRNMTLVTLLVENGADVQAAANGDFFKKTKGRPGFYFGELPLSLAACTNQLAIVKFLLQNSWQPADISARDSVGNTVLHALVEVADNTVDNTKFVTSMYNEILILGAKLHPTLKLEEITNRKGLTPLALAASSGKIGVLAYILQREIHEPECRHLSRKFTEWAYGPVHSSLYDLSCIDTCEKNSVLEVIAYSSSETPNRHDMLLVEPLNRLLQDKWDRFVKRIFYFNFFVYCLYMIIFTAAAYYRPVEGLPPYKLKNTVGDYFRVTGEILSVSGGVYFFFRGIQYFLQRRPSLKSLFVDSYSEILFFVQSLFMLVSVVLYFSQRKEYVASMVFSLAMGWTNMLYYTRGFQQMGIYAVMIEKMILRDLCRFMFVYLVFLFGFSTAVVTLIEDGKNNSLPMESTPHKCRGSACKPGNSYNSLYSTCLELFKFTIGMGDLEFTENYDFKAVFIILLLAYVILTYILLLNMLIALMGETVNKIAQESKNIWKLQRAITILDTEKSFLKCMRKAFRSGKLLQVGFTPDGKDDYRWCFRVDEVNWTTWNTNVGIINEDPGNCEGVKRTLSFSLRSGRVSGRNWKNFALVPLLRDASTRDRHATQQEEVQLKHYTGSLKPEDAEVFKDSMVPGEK
The experiment is described as follows: [Ca2+]i recordings (Fura-2), TRPV1:V1 in HEK 293 cells. The format is cell-based. On the procedure: as §1
HEK T-REx cells expressing tetracycline-inducible TRPC4, TRPC5, TRPC5–C1,TRPC4–C1, and hPiezo1 have been described previously ([46], [57], [59], [78]). Cloning of TRPC3 has been described previously ([79]). To create cells stably expressing tetracycline-inducible TRPC3, HEK T-REx cells were transfected with pcDNA4/TO/hTRPC3 using jetPRIME transfection reagent (VWR) according to manufacturer’s instructions. After 48 h cells were put under antibiotic selection using 400 μg/ml zeocin and 10 μg/ml Blasticidin S (Invivogen)). Medium changes were carried out every 2 to 3 days to remove dead cells. […]

Structures are written as SMILES. “Also recorded” adds a separate entry of the source.

T1 sequence (Q9UL62+P48995 fused): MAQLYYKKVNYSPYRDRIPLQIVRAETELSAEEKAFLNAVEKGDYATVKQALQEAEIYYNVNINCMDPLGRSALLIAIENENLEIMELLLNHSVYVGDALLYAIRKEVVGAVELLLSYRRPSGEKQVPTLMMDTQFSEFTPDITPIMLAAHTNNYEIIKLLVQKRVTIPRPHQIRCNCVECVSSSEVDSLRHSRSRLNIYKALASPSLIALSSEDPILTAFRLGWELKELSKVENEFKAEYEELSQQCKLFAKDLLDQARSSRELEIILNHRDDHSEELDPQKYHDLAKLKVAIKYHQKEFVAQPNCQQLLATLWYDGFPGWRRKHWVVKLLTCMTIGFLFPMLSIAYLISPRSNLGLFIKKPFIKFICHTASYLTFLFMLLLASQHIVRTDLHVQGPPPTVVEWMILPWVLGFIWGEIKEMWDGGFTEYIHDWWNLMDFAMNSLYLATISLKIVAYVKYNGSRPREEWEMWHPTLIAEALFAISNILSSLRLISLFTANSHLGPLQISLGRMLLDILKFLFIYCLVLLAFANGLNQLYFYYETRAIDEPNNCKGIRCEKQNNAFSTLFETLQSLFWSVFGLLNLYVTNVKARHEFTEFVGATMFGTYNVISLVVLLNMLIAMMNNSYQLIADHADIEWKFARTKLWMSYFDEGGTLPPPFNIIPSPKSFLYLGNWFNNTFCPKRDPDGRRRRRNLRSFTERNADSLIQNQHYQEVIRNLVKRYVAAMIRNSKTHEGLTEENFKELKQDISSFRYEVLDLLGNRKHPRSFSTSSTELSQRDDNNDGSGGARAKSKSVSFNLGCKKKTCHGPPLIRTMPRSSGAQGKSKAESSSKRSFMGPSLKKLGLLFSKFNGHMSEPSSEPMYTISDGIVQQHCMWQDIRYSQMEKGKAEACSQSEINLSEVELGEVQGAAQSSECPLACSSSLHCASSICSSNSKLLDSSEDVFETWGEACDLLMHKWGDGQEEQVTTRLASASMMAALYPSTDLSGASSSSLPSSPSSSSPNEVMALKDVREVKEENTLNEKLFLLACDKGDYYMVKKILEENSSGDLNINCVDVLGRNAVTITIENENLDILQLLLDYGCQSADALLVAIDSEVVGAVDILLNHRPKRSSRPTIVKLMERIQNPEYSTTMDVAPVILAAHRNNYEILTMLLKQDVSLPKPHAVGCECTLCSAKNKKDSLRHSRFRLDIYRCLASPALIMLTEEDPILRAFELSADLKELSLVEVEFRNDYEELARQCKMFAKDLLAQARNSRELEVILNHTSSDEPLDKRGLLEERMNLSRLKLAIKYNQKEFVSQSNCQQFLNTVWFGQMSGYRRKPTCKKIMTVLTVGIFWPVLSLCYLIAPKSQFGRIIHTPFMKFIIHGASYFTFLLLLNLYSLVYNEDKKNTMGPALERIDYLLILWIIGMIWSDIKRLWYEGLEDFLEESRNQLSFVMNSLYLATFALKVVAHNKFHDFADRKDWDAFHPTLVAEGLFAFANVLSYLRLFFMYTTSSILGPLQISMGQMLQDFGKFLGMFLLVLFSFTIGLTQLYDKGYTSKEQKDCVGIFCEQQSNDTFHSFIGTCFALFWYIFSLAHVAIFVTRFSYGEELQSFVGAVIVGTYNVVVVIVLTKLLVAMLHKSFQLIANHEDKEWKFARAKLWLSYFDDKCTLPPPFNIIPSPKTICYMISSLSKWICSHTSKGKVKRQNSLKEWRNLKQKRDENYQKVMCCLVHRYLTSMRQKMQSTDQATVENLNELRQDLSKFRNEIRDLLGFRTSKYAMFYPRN

What is called IC50 is the concentration that inhibits the measured activity by half. Lower therefore signals higher potency. In general, Hill slope refers to a measure of the steepness of the concentration-response curve. On to `c1ccc(Cn2c(NCc3ccco3)nc3ccccc32)cc1` [AC1903], for which the IC50 in experiment [1] (HEK T-REx) is 4.7 µM; in experiment [2] (HEK 293, activator capsaicin (500 nM)), above 50 µM. For the same molecule, the Hill slope in experiment [1] is given as -1.3. Also, in experiment [2] (AC1903 100 μM), the “effect on capsaicin-activated TRPV1” value is reported as “small effects”. In addition, the “inhibition of capsaicin-activated TRPV1” value in experiment [2] (AC1903 up to 30 μM) is “does not affect; also recorded: did not inhibit”.
